Measured values as given in patent US7709636B2, “Pyrazole sulfonylurea compound and herbicide” (Nissan Chemical Industries, Ltd., priority 2004, dated 2010).

Assays:
Format in all cases: in vivo
soybean (Glycine max) = experiment: Herbicidal effect test by foliage treatment; conditions: 1.6 g/a; foliage treatment after growth of 14 days; 3 weeks after treatment
Outline: (§1)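 Plants grow from seed under about 1.5 cm of sterilized diluvial soil for 14 days at 25 to 30° C in a greenhouse. A small sprayer applies diluted wettable powder evenly to the foliage, and each species is scored three weeks later.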

Abutilon avicennae = experiment: Herbicidal effect test by foliage treatment; conditions: 1.6 g/a; foliage treatment after growth of 14 days; 3 weeks after treatment
Outline: as §1

Ambrosia elatior = experiment: Herbicidal effect test by foliage treatment; conditions: 1.6 g/a; foliage treatment after growth of 14 days; 3 weeks after treatment
Outline: as §1

Avena fatua = experiment: Herbicidal effect test by foliage treatment; conditions: 1.6 g/a; foliage treatment after growth of 14 days; 3 weeks after treatment
Outline: as §1

Chenopodium album = experiment: Herbicidal effect test by foliage treatment; conditions: 1.6 g/a; foliage treatment after growth of 14 days; 3 weeks after treatment
Outline: as §1

Beta vulgaris (beet) = experiment: Herbicidal effect test by foliage treatment; conditions: 1.6 g/a; foliage treatment after growth of 14 days; 3 weeks after treatment
Outline: as §1

Stellaria media = experiment: Herbicidal effect test by foliage treatment; conditions: 1.6 g/a; foliage treatment after growth of 14 days; 3 weeks after treatment
Outline: as §1

[1] = system: Triticum aestivum (wheat); experiment: Herbicidal effect test by foliage treatment; conditions: 1.6 g/a; foliage treatment after growth of 14 days; 3 weeks after treatment
Outline: as §1

Black-grass = experiment: Herbicidal effect test by foliage treatment; conditions: 1.6 g/a; foliage treatment after growth of 14 days; 3 weeks after treatment
Outline: as §1

Setaria viridis = experiment: Herbicidal effect test by foliage treatment; conditions: 1.6 g/a; foliage treatment after growth of 14 days; 3 weeks after treatment
Outline: as §1

Digitaria adscendes = experiment: Herbicidal effect test by foliage treatment; conditions: 1.6 g/a; foliage treatment after growth of 14 days; 3 weeks after treatment
Outline: as §1

corn (Zea mays) = experiment: Herbicidal effect test by foliage treatment; conditions: 1.6 g/a; foliage treatment after growth of 14 days; 3 weeks after treatment
Outline: as §1

Amaranthus retroflexus = experiment: Herbicidal effect test by foliage treatment; conditions: 1.6 g/a; foliage treatment after growth of 14 days; 3 weeks after treatment
Outline: as §1

Polygonum blumei = experiment: Herbicidal effect test by foliage treatment; conditions: 1.6 g/a; foliage treatment after growth of 14 days; 3 weeks after treatment
Outline: as §1

Echinochloa crus-galli = experiment: Herbicidal effect test in submerged condition by treatment before weed-generation (1); conditions: 0.64 g/a, water surface treated on day of sowing, 3 weeks after treatment
Outline: (§2)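 Steps: flood alluvial soil to 4 cm; sow weed seeds; transplant 2.5-leaf rice seedlings; same day treat water surface with water-diluted wettable powder at set formulation amount; keep in greenhouse at 25 to 30° C; score injury on 0–5 scale at 3 weeks.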

Scirpus juncoides = experiment: as above; conditions: 0.64 g/a, water surface treated on day of sowing, 3 weeks after treatment
Outline: as §2

Monochoria vaginalis = experiment: as above; conditions: 0.64 g/a, water surface treated on day of sowing, 3 weeks after treatment
Outline: as §2

[2] = system: transplanted rice (Oryza sativa); experiment: Crop injury test on rice in water leakage condition; conditions: 0.15 g/a; water leakage 2 cm/day x 3 days; treated on third day after transplantation; 3 weeks after treatment
Experimental: Crop Injury Test on Rice in Water Leakage Condition A mixed soil of alluvial soil and diluvial soil was placed in a plastic pot perforated at the bottom of 1/10000 are, water was poured therein and mixed, and then rice seedlings at 2.5th leaf stage were transplanted. Water leakage treatment was carried out by placing the pot in a plastic vat, and controlling the amount of water in the vat kept at a condition of 2 cm/day×3 days. The pot was put in a green house at 25 to 30° C., on third day after transplantation, the wettable powder of the present invention prepared according to Formulation Example 1 was diluted with water so as to give a predetermined formulation amount, and the surface of the water was treated with the diluted wettable powder. The crop injury on rice was investigated 3 weeks after treatment with the herbicide according to the criteria indicated in Test Example 1.

COc1cc(OC)nc(NC(=O)NS(=O)(=O)c2c(C3=NOCC(C)O3)c(Cl)nn2C)n1 (stereo not drawn) [Compound 1, N-((4,6-dimethoxypyrimidin-2-yl)aminocarbonyl)-3-chloro-1-methyl-4-(5-methyl-5H,6H-1,4,2-dioxadin-3-yl)pyrazole-5-sulfonamide]
herbicidal effect, c: soybean (Glycine max) (soybean (Glycine max)): 5 (Herbicidal rate 90% or more (almost complete death)) | herbicidal effect, H: Abutilon avicennae (Abutilon avicennae): 5 (Herbicidal rate 90% or more (almost complete death)) | herbicidal effect, I: Ambrosia elatior (Ambrosia elatior): 5 (Herbicidal rate 90% or more (almost complete death)) | herbicidal effect, F: Avena fatua (Avena fatua): 1 (Herbicidal rate 5% or more and less than 20%) | herbicidal effect, K: Chenopodium album (Chenopodium album): 4 (Herbicidal rate 70% or more and less than 90%) | herbicidal effect, f: Beta vulgaris (beet) (Beta vulgaris (beet)): 5 (Herbicidal rate 90% or more (almost complete death)) | herbicidal effect, M: Stellaria media (Stellaria media): 5 (Herbicidal rate 90% or more (almost complete death)) | herbicidal effect, e: Triticum aestivum (wheat) [1]: 2 (Herbicidal rate 20% or more and less than 40%) | herbicidal effect, G: Black-grass (Black-grass): 4 (Herbicidal rate 70% or more and less than 90%) | herbicidal effect, E: Setaria viridis (Setaria viridis): 3 (Herbicidal rate 40% or more and less than 70%) | herbicidal effect, D: Digitaria adscendes (Digitaria adscendes): 5 (Herbicidal rate 90% or more (almost complete death)) | herbicidal effect, b: corn (Zea mays) (corn (Zea mays)): 5 (Herbicidal rate 90% or more (almost complete death)) | herbicidal effect, J: Amaranthus retroflexus (Amaranthus retroflexus): 5 (Herbicidal rate 90% or more (almost complete death)) | herbicidal effect, L: Polygonum blumei (Polygonum blumei): 5 (Herbicidal rate 90% or more (almost complete death)) | herbicidal effect, A: Echinochloa crus-galli (Echinochloa crus-galli): 5 (Herbicidal rate 90% or more (almost complete death)) | herbicidal effect, B: Scirpus juncoides (Scirpus juncoides): 5 (Herbicidal rate 90% or more (almost complete death)) | herbicidal effect, C: Monochoria vaginalis (Monochoria vaginalis): 5 (Herbicidal rate 90% or more (almost complete death)) | crop injury on rice, a: transplanted rice (Oryza sativa) [2]: 0 (Herbicidal rate 5% or less (little effect))
